Assay results published in patent US20240016941A1, “COMBINATION THERAPY” (priority 2020, published 2024).
“Also recorded” adds a separate entry of the source.

Key:
[1] = target: T1, purified LasB protein from P. aeruginosa (Pseudomonas aeruginosa, UniProt P14756); test: Fluorometric assay to determine Ki (purified LasB, Abz-Ala-Gly-Leu-Ala-p-Nitro-Benzyl-Amide substrate); format: biochemical
T1 construct: purchased Merck or Charles River Laboratories
How it was run: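 Purified P. aeruginosa LasB (10-140 ng/ml) with 250 μM Abz-Ala-Gly-Leu-Ala-p-nitrobenzylamide in Tris pH 7.4, 2.5 mM CaCl2, 0.01% Triton X100; fluorescence (340/415 nm) followed 30 min at 37 °C. IC50 from 2-fold series (0.0016-200 μM); Ki = IC50/(1+[S]/Km), Km 214 μM.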

[2] = target: T2, LasB elastase activity of dialysed supernatant from P. aeruginosa PAO1 (Pseudomonas aeruginosa, UniProt P14756); test: Elastin Congo-Red assay to determine % inhibition (dialysed PAO1 supernatant); format: biochemical; conditions: read-out: Elastin hydrolysis % inhibition @ 25 μM inhibitor concentration
T2 construct: Culture supernatants are recovered by centrifugation and filtrated through a 0.22 μM filter; endogenous in cells; host or cells: P. aeruginosa strain PAO1, culture supernatant, filtered and dialysed
T2 sequence (P14756 198-498): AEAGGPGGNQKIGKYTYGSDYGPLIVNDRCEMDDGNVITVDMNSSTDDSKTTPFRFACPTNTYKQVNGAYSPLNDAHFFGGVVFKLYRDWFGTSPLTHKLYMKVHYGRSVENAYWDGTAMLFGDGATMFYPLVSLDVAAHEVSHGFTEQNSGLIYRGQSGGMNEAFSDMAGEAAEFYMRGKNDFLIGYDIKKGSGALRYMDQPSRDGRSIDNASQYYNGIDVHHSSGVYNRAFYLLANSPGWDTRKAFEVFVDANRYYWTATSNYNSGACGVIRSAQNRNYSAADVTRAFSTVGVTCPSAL
How it was run: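 End-point assay: dialysed PAO1 culture supernatant (in 50 mM Tris-HCl pH 7.4, 2.5 mM CaCl2) mixed with Elastin Congo-Red plus 0.01% Triton X100 and compound (routinely 50 to 1.56 μM), incubated overnight at 37 °C with shaking. Released dye read at OD495nm; % inhibition relative to DMSO and enzyme-free controls.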

purified LasB = purified LasB (Pseudomonas aeruginosa, UniProt P14756); test: Inhibition of LasB-mediated hydrolysis of pro-IL-1β to IL-1β (FRET peptide); format: biochemical
Chain of purified LasB (P14756 198-498): as above
Method: Hydrolysis of this FRET peptide was continuously monitored using a Victor multimode plate reader (Perkin Elmer) with excitation 355 nm and emission at 450 nm in the presence of varying concentrations of compounds of the invention. Inhibitory constants (Ki) were determined for certain compounds of the invention (at least 2 independent replicates) using a competitive inhibitor model.

PA (PAO1) = test: Mouse model of Pseudomonas aeruginosa lung infection; format: in vivo; conditions: mice infected with wild-type PAO1, i.v. 1 h and 2 h post infection, 10 and 30 mg/kg, 24 hours post infection
Method: Mice were dosed by intranasal inoculation of PA (PAO1), then sacrificed after 24 hours. The extent of infection in the lung was quantified by bacterial load (CFU determination, colony forming units) and the levels of proinflammatory IL-1β. Statistical analysis on both readouts were performed by ANOVA with a Dunnett post-test.
Compounds were administered intravenously in a two-dose regimen (1 hour and 2 hours post infection) at two different doses (10 and 30 mg/kg).

[3] = target: T3, LasB from Pseudomonas aeruginosa (Pseudomonas aeruginosa, UniProt P14756); test: Inhibition of LasB-mediated reduction of CFTR levels on airway cells (CFTR IP / Western blot); format: cell-based; conditions: NHBE airway cells, 100 nM LasB, 1, 10 or 100 μM compound, 24 hrs
T3 construct: host or cells: Exogenous enzyme applied apically to NHBE cells
T3 sequence (P14756 198-498): as above
Method: These experiments measured the amount of CFTR protein expressed in airway cells under normal conditions and also exposed to 100 nM LasB. […] The effect of adding increasing concentrations of a LasB inhibitor (here the compound of Example 23) on this reduction of CFTR by LasB was then examined.
Normal Human Bronchial Epithelial (NHBE) airway cells were expanded in Pneumacult™ EX medium on plastic PureCol™ coated dishes. Cells were plated on Millicell inserts (200K/insert) and differentiated at air-liquid interface for 26 days in modified Lonza Medium. Prior to treatment, cells were washed in 1×DPBS buffer.
Treatments were 100 nM LasB from Pseudomonas aeruginosa and 0, 1, 10, or 100 μM Example 23 for 24 hrs. A stock solution of LasB (200 nM) was prepared in buffer containing 50 mM Tris HCL pH 7.4, 2.5 mM CaCl2 and 0.01% TritonX-100. A 20 mM stock solution of Example 23 was made in DMSO and sonicated for 10 minutes. The DMSO stock was diluted, 10 μL into 990 μL buffer, to give a 200 μM solution. […]
The cells were lysed with 1% NP-40 lysis buffer containing protease inhibitors (1 μg/ml leupeptin, 2 μg/ml aprotinin, […] pefabloc, 121 μg/ml benzamidine, 3.5 μg/ml E64) and stored at −80° C. until IP/WB analysis. […] Protein bands were visualized using a Sapphire Biomolecular Imager (Azure Biosystems) and quantitated with AzureSpot Analysis Software.

T1 sequence (P14756 198-498): as above

Structure (SMILES): COc1cc2sc(CNC(=O)C3(CC(=O)[O-])Cc4cc(F)c(F)cc4C3)nc2cc1OCCC[N+](C)(CCO)CCO [Example 23, 2-[2-[[5-[3-[bis(2-hydroxyethyl)-methyl-ammonio]propoxy]-6-methoxy-1,3-benzothiazol-2-yl]methylcarbamoyl]-5,6-difluoro-indan-2-yl]acetate]
- Ki [1]: < 0.05 µM
- inhibition at 25 µM [2]: > 80%
- Ki (purified LasB): 0.5 µM
- extent of infection in the lung (CFU levels) (PA (PAO1)): reduced the extent of infection in the lung to the level of the LasB deleted mutant
- production and activation of IL-1β in the lung (PA (PAO1)): inhibited the production and activation of IL-1β in mice infected by wild-type PA (PA01) at a similar level than the lasB deleted mutant
- CFTR protein level in LasB-exposed cells [3]: ameliorated by increasing concentrations of Example 23; also recorded: counteract the reduction in CFTR expression caused by LasB in a dose-related manner
